Assay results: patent US7846959B2, “Raf modulators and methods of use” (Exelixis, Inc., priority 2004, dated 2010)

How the values were obtained:
B-Raf = B-Raf (Homo sapiens, UniProt P15056); experiment: Luciferase-coupled chemiluminescence kinase assay (ATP consumption), B-Raf; type: biochemical; conditions: read-out: bRaf IC50
Procedure, shortened: (§1)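 Raf enzyme ([…]) pre-incubated with compound 30 minutes at room temperature in 20 mM Tris pH 7.5, 10 mM MgCl2, 0.03% TX-100, 1 mM DTT, then reacted with ATP for 3 hrs at ambient temperature. Remaining ATP quantified by luciferase-luciferin chemiluminescence, consumption held at 25-60%; IC50 reported.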

c-Raf = c-Raf (Homo sapiens, UniProt P04049); experiment: Luciferase-coupled chemiluminescence kinase assay (ATP consumption), c-Raf; type: biochemical; conditions: read-out: cRaf-1 IC50
c-Raf, sequence (P04049 whole entry): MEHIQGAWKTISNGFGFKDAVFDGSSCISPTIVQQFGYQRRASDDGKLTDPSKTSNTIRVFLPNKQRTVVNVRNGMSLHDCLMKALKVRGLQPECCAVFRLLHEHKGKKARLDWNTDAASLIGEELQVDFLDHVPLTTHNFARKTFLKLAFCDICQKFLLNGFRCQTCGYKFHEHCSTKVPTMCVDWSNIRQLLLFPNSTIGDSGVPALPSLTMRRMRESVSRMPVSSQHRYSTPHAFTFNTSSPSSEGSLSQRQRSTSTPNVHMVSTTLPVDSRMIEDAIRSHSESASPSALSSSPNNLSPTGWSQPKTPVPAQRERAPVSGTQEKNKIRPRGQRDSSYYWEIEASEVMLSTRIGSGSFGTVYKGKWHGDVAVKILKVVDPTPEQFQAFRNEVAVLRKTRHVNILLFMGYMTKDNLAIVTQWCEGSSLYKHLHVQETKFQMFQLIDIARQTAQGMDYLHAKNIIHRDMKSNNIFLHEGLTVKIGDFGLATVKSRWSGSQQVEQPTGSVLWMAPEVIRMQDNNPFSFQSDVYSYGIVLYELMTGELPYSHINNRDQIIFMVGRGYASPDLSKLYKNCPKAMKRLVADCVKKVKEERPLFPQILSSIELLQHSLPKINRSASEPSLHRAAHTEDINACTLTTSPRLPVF
Procedure, shortened: as §1

B-Raf, sequence (P15056 whole entry): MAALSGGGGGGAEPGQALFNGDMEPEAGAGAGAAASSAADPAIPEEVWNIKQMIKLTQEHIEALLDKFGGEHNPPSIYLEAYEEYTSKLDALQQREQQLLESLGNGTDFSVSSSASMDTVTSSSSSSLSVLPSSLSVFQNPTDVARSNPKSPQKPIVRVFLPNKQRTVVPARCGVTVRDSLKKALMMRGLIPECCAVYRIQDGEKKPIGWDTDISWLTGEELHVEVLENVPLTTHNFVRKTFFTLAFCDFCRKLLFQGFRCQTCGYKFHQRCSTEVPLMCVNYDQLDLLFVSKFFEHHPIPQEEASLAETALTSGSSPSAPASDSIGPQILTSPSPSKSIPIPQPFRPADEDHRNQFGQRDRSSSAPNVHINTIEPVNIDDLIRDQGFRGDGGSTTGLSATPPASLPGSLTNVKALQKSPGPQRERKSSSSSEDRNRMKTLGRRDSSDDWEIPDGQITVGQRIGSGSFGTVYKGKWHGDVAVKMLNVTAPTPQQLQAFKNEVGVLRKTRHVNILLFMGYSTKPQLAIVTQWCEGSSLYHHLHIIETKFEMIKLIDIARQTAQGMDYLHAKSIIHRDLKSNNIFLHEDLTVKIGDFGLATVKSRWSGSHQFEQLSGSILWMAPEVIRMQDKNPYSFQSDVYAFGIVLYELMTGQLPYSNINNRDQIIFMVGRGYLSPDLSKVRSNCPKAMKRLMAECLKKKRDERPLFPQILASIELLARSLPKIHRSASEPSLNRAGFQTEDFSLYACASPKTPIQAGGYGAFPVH

IC50 (B-Raf) [nM]	IC50 (c-Raf) [nM]	SMILES
1000 to 10000	1000 to 10000	COC(=O)Nc1nc2cc(C3(O)c4ccccc4C(=O)N3C(C)c3cccc(Cl)c3C)ccc2[nH]1 (stereo not shown) [Entry 200, methyl (5-{2-[1-(3-chloro-2-methylphenyl)ethyl]-1-hydroxy-3-oxo-2,3-dihydro-1H-isoindol-1-yl}-1H-benzimidazol-2-yl)carbamate]
< 100	< 100	COC(=O)Nc1nc2cc(C3(O)c4ccccc4C(=O)N3C(C)c3ccc(C)s3)ccc2[nH]1 (stereo not shown) [Entry 201, methyl (5-{1-hydroxy-2-[1-(5-methyl-2-thienyl)ethyl]-3-oxo-2,3-dihydro-1H-isoindol-1-yl}-1H-benzimidazol-2-yl)carbamate]
< 100	< 100	COC(=O)Nc1nc2cc(C3(O)c4ccccc4C(=O)N3C(C)c3ccc(Cl)s3)ccc2[nH]1 (stereo not shown) [Entry 202, methyl (5-{2-[1-(5-chloro-2-thienyl)ethyl]-1-hydroxy-3-oxo-2,3-dihydro-1H-isoindol-1-yl}-1H-benzimidazol-2-yl)carbamate]
< 100	< 100	COC(=O)Nc1nc2cc(C3(O)c4ccccc4C(=O)N3c3cccc(I)c3)ccc2[nH]1 (stereo not shown) [Entry 203, methyl {5-[1-hydroxy-2-(3-iodophenyl)-3-oxo-2,3-dihydro-1H-isoindol-1-yl]-1H-benzimidazol-2-yl}carbamate]
< 100	< 100	COC(=O)Nc1nc2cc(C3(O)c4ccccc4C(=O)N3c3cccc(C(C)C)c3)ccc2[nH]1 (stereo not shown) [Entry 204, methyl (5-{1-hydroxy-2-[3-(1-methylethyl)phenyl]-3-oxo-2,3-dihydro-1H-isoindol-1-yl}-1H-benzimidazol-2-yl)carbamate]
< 100	< 100	COC(=O)Nc1nc2cc(C3(O)c4ccccc4C(=O)N3Cc3ccco3)ccc2[nH]1 (stereo not shown) [Entry 205, methyl {5-[2-(furan-2-ylmethyl)-1-hydroxy-3-oxo-2,3-dihydro-1H-isoindol-1-yl]-1H-benzimidazol-2-yl}carbamate]
< 100	< 100	COC(=O)Nc1nc2cc(C3(O)c4ccccc4C(=O)N3Cc3ccsc3)ccc2[nH]1 (stereo not shown) [Entry 206, methyl {5-[1-hydroxy-3-oxo-2-(3-thienylmethyl)-2,3-dihydro-1H-isoindol-1-yl]-1H-benzimidazol-2-yl}carbamate]
< 100	< 100	COC(=O)Nc1nc2cc(C3(O)c4ccccc4C(=O)N3CC3CCC3)ccc2[nH]1 (stereo not shown) [Entry 207, methyl {5-[2-(cyclobutylmethyl)-1-hydroxy-3-oxo-2,3-dihydro-1H-isoindol-1-yl]-1H-benzimidazol-2-yl}carbamate]
1000 to 10000	1000 to 10000	O=C1c2ccccc2C(O)(c2ccc3[nH]c(NC(=O)C(O)(C(F)(F)F)C(F)(F)F)nc3c2)N1Cc1ccccc1 (stereo not shown) [Entry 208, 3,3,3-trifluoro-2-hydroxy-N-{5-[1-hydroxy-3-oxo-2-(phenylmethyl)-2,3-dihydro-1H-isoindol-1-yl]-1H-benzimidazol-2-yl}-2-(trifluoromethyl)propanamide]
< 100	< 100	COC(=O)Nc1nc2cc(C3(O)c4ccccc4C(=O)N3C(C)c3cc(C)cs3)ccc2[nH]1 (stereo not shown) [Entry 209, methyl (5-{1-hydroxy-2-[1-(4-methyl-2-thienyl)ethyl]-3-oxo-2,3-dihydro-1H-isoindol-1-yl}-1H-benzimidazol-2-yl)carbamate]
< 100	< 100	COC(=O)Nc1nc2cc(C3(O)c4ccccc4C(=O)N3C(C)c3cc(Br)cs3)ccc2[nH]1 (stereo not shown) [Entry 210, methyl (5-{2-[1-(4-bromo-2-thienyl)ethyl]-1-hydroxy-3-oxo-2,3-dihydro-1H-isoindol-1-yl}-1H-benzimidazol-2-yl)carbamate]
1000 to 10000	1000 to 10000	COCCOc1cccc(N2C(=O)c3ccccc3C2(O)c2ccc3[nH]c(NC(=O)OC)nc3c2)c1 (stereo not shown) [Entry 211, methyl {5-[1-hydroxy-2-(3-{[2-(methyloxy)ethyl]oxy}phenyl)-3-oxo-2,3-dihydro-1H-isoindol-1-yl]-1H-benzimidazol-2-yl}carbamate]
< 100	< 100	O=C(Nc1nc2cc(C3(O)c4ccccc4C(=O)N3Cc3ccccc3)ccc2[nH]1)OCC1CCOC1 (stereo not shown) [Entry 212, tetrahydrofuran-3-ylmethyl {5-[1-hydroxy-3-oxo-2-(phenylmethyl)-2,3-dihydro-1H-isoindol-1-yl]-1H-benzimidazol-2-yl}carbamate]
1000 to 10000	100 to 1000	O=C(Nc1nc2cc(C3(O)c4ccccc4C(=O)N3Cc3ccccc3)ccc2[nH]1)N1CCCCC1 (stereo not shown) [Entry 213, N-{5-[1-hydroxy-3-oxo-2-(phenylmethyl)-2,3-dihydro-1H-isoindol-1-yl]-1H-benzimidazol-2-yl}piperidine-1-carboxamide]
< 100	< 100	COC(=O)Nc1nc2cc(C3(O)c4ccccc4C(=O)N3c3ccc(F)c(Br)c3)ccc2[nH]1 (stereo not shown) [Entry 214, methyl {5-[2-(3-bromo-4-fluorophenyl)-1-hydroxy-3-oxo-2,3-dihydro-1H-isoindol-1-yl]-1H-benzimidazol-2-yl}carbamate]
< 100	< 100	O=C(Nc1nc2cc(C3(O)c4ccccc4C(=O)N3Cc3ccccc3)ccc2[nH]1)OCC(O)CO (stereo not shown) [Entry 215, 2,3-dihydroxypropyl {5-[1-hydroxy-3-oxo-2-(phenylmethyl)-2,3-dihydro-1H-isoindol-1-yl]-1H-benzimidazol-2-yl}carbamate]
100 to 1000	100 to 1000	COC(=O)Nc1nc2cc(C3(O)c4ccccc4C(=O)N3CC3CCCO3)ccc2[nH]1 (stereo not shown) [Entry 216, methyl {5-[1-hydroxy-3-oxo-2-(tetrahydrofuran-2-ylmethyl)-2,3-dihydro-1H-isoindol-1-yl]-1H-benzimidazol-2-yl}carbamate]
< 100	100 to 1000	COC(=O)Nc1nc2cc(C3(O)c4ccccc4C(=O)N3c3cccc(C(N)=O)c3)ccc2[nH]1 (stereo not shown) [Entry 217, methyl (5-{2-[3-(aminocarbonyl)phenyl]-1-hydroxy-3-oxo-2,3-dihydro-1H-isoindol-1-yl}-1H-benzimidazol-2-yl)carbamate]
1000 to 10000	1000 to 10000	O=C(CC(O)(C(F)(F)F)C(F)(F)F)Nc1nc2cc(C3(O)c4ccccc4C(=O)N3Cc3ccccc3)ccc2[nH]1 (stereo not shown) [Entry 218, 4,4,4-trifluoro-3-hydroxy-N-{5-[1-hydroxy-3-oxo-2-(phenylmethyl)-2,3-dihydro-1H-isoindol-1-yl]-1H-benzimidazol-2-yl}-3-(trifluoromethyl)butanamide]
100 to 1000	100 to 1000	COC(=O)Nc1nc2cc(C3(O)c4ccccc4C(=O)N3c3cccc(S(C)(=O)=O)c3)ccc2[nH]1 (stereo not shown) [Entry 219, methyl (5-{1-hydroxy-2-[3-(methylsulfonyl)phenyl]-3-oxo-2,3-dihydro-1H-isoindol-1-yl}-1H-benzimidazol-2-yl)carbamate]
< 100	< 100	COC(=O)Nc1nc2cc(C3(O)c4ccccc4C(=O)N3c3cccc(Oc4ccccc4)c3)ccc2[nH]1 (stereo not shown) [Entry 220, methyl (5-{1-hydroxy-3-oxo-2-[3-(phenyloxy)phenyl]-2,3-dihydro-1H-isoindol-1-yl}-1H-benzimidazol-2-yl)carbamate]
100 to 1000	< 100	COC(=O)Nc1nc2cc(C3(O)c4ccccc4C(=O)N3c3cccc(OCc4ccccc4)c3)ccc2[nH]1 (stereo not shown) [Entry 221, methyl [5-(1-hydroxy-3-oxo-2-{3-[(phenylmethyl)oxy]phenyl}-2,3-dihydro-1H-isoindol-1-yl)-1H-benzimidazol-2-yl]carbamate]
1000 to 10000	1000 to 10000	COC(=O)Nc1nc2cc(C3(O)c4ccccc4C(=O)N3c3cccc(-c4ccccc4)c3)ccc2[nH]1 (stereo not shown) [Entry 222, methyl [5-(2-biphenyl-3-yl-1-hydroxy-3-oxo-2,3-dihydro-1H-isoindol-1-yl)-1H-benzimidazol-2-yl]carbamate]
100 to 1000	< 100	CC(C)(COCc1ccccc1)COC(=O)Nc1nc2cc(C3(O)c4ccccc4C(=O)N3Cc3ccccc3)ccc2[nH]1 (stereo not shown) [Entry 223, 2,2-dimethyl-3-[(phenylmethyl)oxy]propyl {5-[1-hydroxy-3-oxo-2-(phenylmethyl)-2,3-dihydro-1H-isoindol-1-yl]-1H-benzimidazol-2-yl}carbamate]
< 100	< 100	COC(=O)Nc1nc2cc(C3(O)c4ccccc4C(=O)N3c3cccc(Cl)c3F)ccc2[nH]1 (stereo not shown) [Entry 224, methyl {5-[2-(3-chloro-2-fluorophenyl)-1-hydroxy-3-oxo-2,3-dihydro-1H-isoindol-1-yl]-1H-benzimidazol-2-yl}carbamate]
100 to 1000	100 to 1000	COC(=O)Nc1nc2cc(C3(O)c4ccccc4C(=O)N3c3cccc(C#N)c3)ccc2[nH]1 (stereo not shown) [Entry 225, methyl {5-[2-(3-cyanophenyl)-1-hydroxy-3-oxo-2,3-dihydro-1H-isoindol-1-yl]-1H-benzimidazol-2-yl}carbamate]
< 100	< 100	C#Cc1cc(N2C(=O)c3ccccc3C2(O)c2ccc3[nH]c(NC(=O)OC)nc3c2)ccc1F (stereo not shown) [Entry 226, methyl {5-[2-(3-ethynyl-4-fluorophenyl)-1-hydroxy-3-oxo-2,3-dihydro-1H-isoindol-1-yl]-1H-benzimidazol-2-yl}carbamate]
< 100	< 100	COC(=O)Nc1nc2cc(C3(O)c4ccccc4C(=O)N3c3ccc(F)c(C)c3)ccc2[nH]1 (stereo not shown) [Entry 227, methyl {5-[2-(4-fluoro-3-methylphenyl)-1-hydroxy-3-oxo-2,3-dihydro-1H-isoindol-1-yl]-1H-benzimidazol-2-yl}carbamate]
< 100	< 100	COC(=O)Nc1nc2ccc(C3(O)c4ccccc4C(=O)N3c3ccc(Cl)c(Cl)c3F)cc2[nH]1 (stereo not shown) [Entry 228, methyl {6-[2-(3,4-dichloro-2-fluorophenyl)-1-hydroxy-3-oxo-2,3-dihydro-1H-isoindol-1-yl]-1H-benzimidazol-2-yl}carbamate]
